US20230364029A1, “POLYMORPHIC FORMS OF (R)-2-HYDROXY-2-METHYL-4-(2,4,5-TRIMETHYL-3,6-DIOXOCYCLOHEXA-1,4-DIENYL)BUTANAMIDE” (PTC THERAPEUTICS, INC., priority 2014, published 2023)
Values after ≈ are worked out from the molar mass of the structure shown.

Legend:
Assay type in all cases: physicochemical
Grinding experiments = conditions: for XRPD after grinding: RT; for Stability of crystal form to grinding: light grinding, dry and with IPA or water
Protocol: Grinding experiments of the starting material were performed by dry grinding and solvent drop grinding in IPA and water utilizing a mortar and pestle (Table 18).

[1] = Solubility measurement of Pattern A in 17 solvent systems (gravimetric); conditions: for solubility: thermodynamic from solid
Excerpt: (R)-Trolox was produced from racemic Trolox via methylbenzyl amine double resolution in a manner similar to that described in Example 29 of U.S. Pat. No. 4,026,907. This (R)-Trolox was used to synthesize the (R)-2-hydroxy-2-methyl-4-(2,4,5-trimethyl-3,6-dioxocyclohexa-1,4-dienyl)butanamide starting material. This starting material, designated as Pattern A, was used for the solubility measurement.
Excess amount of solid was slurried in 17 solvent systems having diverse properties for minimum of 3 days. The slurry was centrifuged and the clear solution was used for gravimetric method. […] Limited solubility was observed from heptane, toluene, MTBE, water and 0.5% Methyl Cellulose in water at ambient and elevated temperatures. Table 9 presents the measured solubility data. A ±10% error is expected.

[2] = Moisture sorption analysis; conditions: for Hygroscopicity: moisture sorption, 0-95% RH cycles
Protocol: Moisture sorption analysis of the starting material was performed by equilibrating the sample at 25° C. and 50% RH to simulate ambient lab conditions. Humidity then decreased to 0% RH, increased from 0 to 95% RH, reduced from 95 to 0% RH, increased from 0 to 95 %RH and then decreased from 95 to 50% RH. Each point represents the estimated asymptotic weight for each humidity or weight. […] No hysteresis was observed upon desorption (FIG. 14).
Moisture sorption analysis of Pattern E (from the 300 mg scale lot) was performed by equilibrating the sample at 25° C. and 50% RH to simulate ambient lab conditions. Humidity was then decreased to 0% RH, increased from 0 to 95% RH, reduced from 95 to 0% RH, increased from 0 to 95 %RH and then decreased from 95 to 50% RH. Each point represents the estimated asymptotic weight for each humidity or weight. […] No hysteresis was observed upon desorption (FIG. 19).
Moisture sorption analysis of Pattern C (300 mg lot) was performed by equilibrating the sample at 25° C. and 50% RH to simulate ambient lab conditions. Humidity was then decreased to 0% RH, increased from 0 to 95% RH, reduced from 95 to 0% RH, increased from 0 to 95%RH and then decreased from 95 to 50% RH. Each point represents the estimated asymptotic weight for each humidity or weight. […] This increased the total water to about 6% which is the water content of mono-hydrate. However, upon reducing the relative humidity, the solid lost its water. Therefore this could be a channel hydrate. No hysteresis was observed upon desorption (FIG. 24).
Moisture sorption analysis of Pattern B (300 mg lot) was performed by equilibrating the sample at 25° C. and 50% RH to simulate ambient lab conditions. Humidity then decreased to 0% RH, increased from 0 to 95% RH, reduced from 95 to 0% RH, increased from 0 to 95 %RH and then decreased from 95 to 50% RH. Each point represents the estimated asymptotic weight for each humidity or weight. […] The major weight loss at the beginning was due to loss of solvent.
Moisture sorption analysis of Pattern F (from Example 6) was performed by equilibrating the sample at 25° C. and 50% RH to simulate ambient lab conditions. Humidity was then decreased to 0% RH, increased from 0 to 95% RH, reduced from 95 to 0% RH, increased from 0 to 95 %RH and then decreased from 95 to 50% RH. Each point represents the estimated asymptotic weight for each humidity or weight. […] The major weight loss at the beginning is due to loss of solvent.

[3] = Short term slurry experiments (form by XRPD); conditions: slurried in most of 17 solvents, min. 3 days
Protocol: Short term slurry experiments of the starting material, Pattern A, were performed for a minimum of 3 days in 17 different solvent systems having diverse properties at two different temperatures (25 and 50° C.). A 48 position Chemglass reaction block was used for heating and stirring the slurries which were in 2 mL HPLC vials. After the due time, vials were centrifuged and the wet solids were used for X-ray diffraction.

[4] = 7 day elevated aqueous humidity studies; conditions: for XRPD [Pattern] 7 day: form after 7 days
Protocol: 7 day elevated aqueous humidity experiments were performed on all Patterns A, B, C, D, E and F at ambient conditions at > 95%RH (Table 17). Approximately 30 mg of each pattern was weighed into a 4 ml glass vial. The uncovered 4 ml vial was inserted into a 20 ml scintillation vial half filled with water and capped. Following 24 hours of equilibration, visual inspection was performed to check for changes in physical appearance, however no change was observed.

[5] = Aqueous solubility (HPLC); conditions: water, thermodynamic from solid, ambient conditions, 24 hours of equilibration
Protocol: Aqueous solubility of Patterns A, B, C, E and F was performed using an Agilent HPLC system. Approximately 10-20 mg of each form was charged to a 2 mL glass vial loaded with a magnetic stir bar and added 2 mL of water. The samples were allowed to stir overnight at ambient conditions. Following 24 hours of equilibration the samples were centrifuged and decanted into HPLC vials. A calibration curve was generated based on Pattern A in MeOH at 0.05, 0.1, 0.5 and 1.0 mg/mL. Following injection of the standard curve, the samples were run as is.

Q: Which results are given for `CC1=C(C)C(=O)C(CC[C@@](C)(O)C(N)=O)=C(C)C1=O` [Pattern A, (R)-2-hydroxy-2-methyl-4-(2,4,5-trimethyl-3,6-dioxocyclohexa-1,4-dienyl)butanamide]?
A: XRPD after grinding (Grinding experiments; dry grinding, mortar and pestle): Pattern A; Stability of crystal form to grinding (Grinding experiments): no change in the crystal form; Stability of crystal form to grinding (Grinding experiments; listed as Form I): stability to grinding; XRPD after grinding (Grinding experiments; solvent drop grinding, H2O (2 drops)): Pattern A; XRPD after grinding (Grinding experiments; solvent drop grinding, IPA (2 drops)): Pattern A; Solubility in a simple detergent ([1]; 0.5% MC/2% Tween 80): increased solubility; solubility ([1]; 0.5% methyl cellulose in water, 25 °C, aqueous with cosolvent or surfactant or cyclodextrin, 0.5% MC in Water, part of the concentration relates to solvent constituents): 7 mg/mL (≈ 26.4 mM); solubility ([1]; 0.5% methyl cellulose in water, 50 °C, aqueous with cosolvent or surfactant or cyclodextrin, 0.5% MC in Water, part of the concentration relates to solvent constituents): 4 mg/mL (≈ 15.1 mM); solubility ([1]; 0.5% methyl cellulose/2% Tween 80, 25 °C, aqueous with cosolvent or surfactant or cyclodextrin, 0.5% MC/2% Tween 80, 25° C., part of the concentration relates to solvent constituents): 26 mg/mL (≈ 98 mM); solubility ([1]; 0.5% methyl cellulose/2% Tween 80, 50 °C, aqueous with cosolvent or surfactant or cyclodextrin, 0.5% MC/2% Tween 80, 50° C., part of the concentration relates to solvent constituents): 30 mg/mL (≈ 113 mM); solubility ([1]; 2-MeTHF, 25 °C, organic solvent or mixture, gravimetric): 35 mg/mL (≈ 132 mM); solubility ([1]; 2-MeTHF, 50 °C, organic solvent or mixture, gravimetric): 59 mg/mL (≈ 222 mM); solubility ([1]; 4% DMA in PBS, 25 °C, aqueous buffer, part of the concentration relates to solvent constituents): 10 mg/mL (≈ 37.7 mM); solubility ([1]; 4% DMA in PBS, 50 °C, aqueous buffer, part of the concentration relates to solvent constituents): 13 mg/mL (≈ 49 mM); solubility ([1]; EtOAc, 25 °C, organic solvent or mixture, gravimetric): 22 mg/mL (≈ 82.9 mM); solubility ([1]; EtOAc, 50 °C, organic solvent or mixture, gravimetric): 38 mg/mL (≈ 143 mM); solubility ([1]; EtOH, 25 °C, organic solvent or mixture, gravimetric): 40 mg/mL (≈ 151 mM); solubility ([1]; EtOH, 50 °C, organic solvent or mixture, gravimetric): > 121 mg/mL; Solubility in polar and non-polar solvents ([1]; Example 2, summary statement): soluble in a variety of polar and non-polar solvents; solubility ([1]; IPA, 25 °C, organic solvent or mixture, gravimetric): 20 mg/mL (≈ 75.4 mM); solubility ([1]; IPA, 50 °C, organic solvent or mixture, gravimetric): 53 mg/mL (≈ 200 mM); solubility ([1]; IPAc, 25 °C, organic solvent or mixture, gravimetric): 13 mg/mL (≈ 49 mM); solubility ([1]; IPAc, 50 °C, organic solvent or mixture, gravimetric): 16 mg/mL (≈ 60.3 mM); solubility ([1]; MTBE, 25 °C, organic solvent or mixture, gravimetric): 10 mg/mL (≈ 37.7 mM); solubility ([1]; MTBE, 50 °C, organic solvent or mixture, gravimetric): 16 mg/mL (≈ 60.3 mM); solubility ([1]; MeCN, 25 °C, organic solvent or mixture, gravimetric): 20 mg/mL (≈ 75.4 mM); solubility ([1]; MeCN, 50 °C, organic solvent or mixture, gravimetric): 38 mg/mL (≈ 143 mM); solubility ([1]; MeOH, 25 °C, organic solvent or mixture, gravimetric): > 101 mg/mL; solubility ([1]; MeOH, 50 °C, organic solvent or mixture, gravimetric): > 112 mg/mL; solubility ([1]; THF, 25 °C, organic solvent or mixture, gravimetric): 28 mg/mL (≈ 106 mM); solubility ([1]; THF, 50 °C, organic solvent or mixture, gravimetric): 33 mg/mL (≈ 124 mM); solubility ([1]; acetone, 25 °C, organic solvent or mixture, gravimetric): 39 mg/mL (≈ 147 mM); solubility ([1]; acetone, 50 °C, organic solvent or mixture, gravimetric): 90 mg/mL (≈ 339 mM); solubility ([1]; heptane, 25 °C, organic solvent or mixture, slurry min. 3 days, gravimetric): 6 mg/mL (≈ 22.6 mM); solubility ([1]; heptane, 50 °C, organic solvent or mixture, slurry min. 3 days, gravimetric): 6 mg/mL (≈ 22.6 mM); solubility ([1]; toluene, 25 °C, organic solvent or mixture, gravimetric): 3 mg/mL (≈ 11.3 mM); solubility ([1]; toluene, 50 °C, organic solvent or mixture, gravimetric): < 18 mg/mL; solubility ([1]; water, 25 °C, ^1Water (second water line), gravimetric): 2 mg/mL (≈ 7.54 mM); solubility ([1]; water, 25 °C, gravimetric): 3 mg/mL (≈ 11.3 mM); solubility ([1]; water, 50 °C, ^1Water (second water line), gravimetric): 6 mg/mL (≈ 22.6 mM); solubility ([1]; water, 50 °C, gravimetric): 3 mg/mL (≈ 11.3 mM); XRPD following moisture sorption analysis ([2]; after 0-95% RH cycles at 25° C.): consistent with the starting material, Pattern A; Water adsorbed ([2]; at 90 %RH, 25° C.): 0.1%; Hygroscopicity ([2]; 25° C.): non-hygroscopic; Hygroscopicity ([2]; 25° C., listed as Form I): non-hygroscopic; Hysteresis upon desorption ([2]; moisture sorption-desorption, 25° C.): No hysteresis; Stability of form in short term slurry [3]: relatively stable; Visual Observations 1 day ([4]; > 95 %RH at Ambient): Yellow solids; Visual Observations 7 day ([4]; > 95 %RH at Ambient): Yellow Solids; XRPD [Pattern] 7 day ([4]; > 95 %RH at Ambient): no change in form; XRPD [Pattern] 7 day ([4]; > 95 %RH at Ambient, listed as A): Crystalline [Pattern A]; Stability to elevated humidity ([4]; Example 8, summary statement): stability to elevated humidity; solubility at 24 h [5]: 1.74 mg/mL (≈ 6.56 mM)
